In ChEMBL document CHEMBL1201862, “PubChem BioAssay data set” (2004):
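In this assay, cells in 96-well plates receive the compound at five concentrations for 48 hours. Endpoints are linearly interpolated between the surrounding concentrations. At the GI50, growth is halved.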 Active and inactive are the calls of the source. Rule as the data show it: active = GI50 up to about 1.1 µM and inactive = higher.

Tests used:
Assay in all cases: NCI anticancer screen, dose series, 48 h
[1] = tested on: NCI-H460
[2] = tested on: HCT-15
[3] = tested on: UACC-62
[4] = tested on: Malme-3M
[5] = tested on: COLO 205
[6] = tested on: SF-295
[7] = tested on: UACC-257
[8] = tested on: SN12C
[9] = tested on: SF-539
[10] = tested on: OVCAR-4
[11] = tested on: SF-268
[12] = tested on: CAKI-1
[13] = tested on: ACHN
[14] = tested on: SNB-19
[15] = tested on: K562
[16] = tested on: A549
[17] = tested on: LOX IMVI

Compound	GI50 [1]	GI50 [2]	GI50 [3]	GI50 [4]	GI50 [5]	GI50 [6]	GI50 [7]	GI50 [8]	GI50 [9]	GI50 [10]	GI50 [11]	GI50 [12]	GI50 [13]	GI50 [14]	GI50 [15]	GI50 [16]	GI50 [17]
CN(C(=O)C12C3(C(=O)C(C)(C)C)C4C5(C#N)C3C1(C(=O)C(C)(C)C)C5C42C(=O)C(C)(C)C)C(C)(C)C (stereo unspecified)	> 50 µM (inactive)	> 50 µM	48.8 µM (inactive)	> 50 µM (inactive)	> 50 µM (inactive)	> 50 µM (inactive)	19.6 µM (inactive)	> 50 µM (inactive)	> 50 µM (inactive)	31.6 µM (inactive)	32.5 µM (inactive)	33.8 µM (inactive)	25.2 µM (inactive)	> 50 µM (inactive)	27.2 µM (inactive)	> 50 µM (inactive)	
Cc1nc(-n2nc(-c3ccccc3)cc2-c2ccccc2)sc1C(=O)CC(=O)C(=O)Nc1ccc(Cl)c(Cl)c1	71.4 µM (inactive)	56.1 µM	45.8 µM (inactive)	> 100 µM (inactive)	47.3 µM (inactive)	79.3 µM (inactive)	44.5 µM (inactive)	91.6 µM (inactive)	67.1 µM (inactive)	66.4 µM (inactive)	48.5 µM (inactive)	83 µM (inactive)	25.1 µM (inactive)	79.4 µM (inactive)	41.6 µM (inactive)	> 100 µM (inactive)	71 µM (inactive)
O=C(NCc1ccccc1)C1C(=O)C(=O)N(Cc2ccccc2)C1=O (stereo unspecified)	> 100 µM (inactive)	> 100 µM	> 100 µM (inactive)	> 100 µM (inactive)	> 100 µM (inactive)	> 100 µM (inactive)	> 100 µM (inactive)	> 100 µM (inactive)	> 100 µM (inactive)	> 100 µM (inactive)	> 100 µM (inactive)	0.0113 µM (active)	> 100 µM (inactive)	> 100 µM (inactive)	> 100 µM (inactive)	> 100 µM (inactive)	> 100 µM (inactive)
CN(C)C(=S)/N=c1\sn(C)/c(=N\C(=S)N(C)C)n1C	50.6 µM (inactive)	> 100 µM	32.2 µM (inactive)	19.5 µM (inactive)	> 100 µM (inactive)	> 100 µM (inactive)	> 100 µM (inactive)	> 100 µM (inactive)	> 100 µM (inactive)	> 100 µM (inactive)	> 100 µM (inactive)	> 100 µM (inactive)	> 100 µM (inactive)	> 100 µM (inactive)	34.1 µM (inactive)	82.8 µM (inactive)	45.1 µM (inactive)
O=C1c2cc3c(cc2[C@@H]2NC4CCCC14O2)OCO3 (stereo partly specified)	> 100 µM (inactive)		> 100 µM (inactive)			> 100 µM (inactive)	> 100 µM (inactive)	> 100 µM (inactive)	> 100 µM (inactive)	> 100 µM (inactive)	> 100 µM (inactive)	> 100 µM (inactive)	> 100 µM (inactive)	> 100 µM (inactive)	> 100 µM (inactive)	> 100 µM (inactive)	
COC(=O)[C@]12CC=C3O[C@@H]4OC5(CCCCC5)O[C@@H]4C3[C@@H]1C(=O)CCC2=O (stereo partly specified)	> 100 µM (inactive)	> 100 µM	> 100 µM (inactive)	> 100 µM (inactive)	> 100 µM (inactive)	> 100 µM (inactive)	> 100 µM (inactive)	> 100 µM (inactive)		> 100 µM (inactive)	> 100 µM (inactive)	> 100 µM (inactive)	> 100 µM (inactive)	> 100 µM (inactive)	> 100 µM (inactive)	> 100 µM (inactive)	> 100 µM (inactive)
C=C(CO)CC(O)c1ccccc1 (stereo unspecified)	> 100 µM (inactive)	> 100 µM	> 100 µM (inactive)		> 100 µM (inactive)	> 100 µM (inactive)		> 100 µM (inactive)	> 100 µM (inactive)	> 100 µM (inactive)	> 100 µM (inactive)		> 100 µM (inactive)	> 100 µM (inactive)	> 100 µM (inactive)	> 100 µM (inactive)	> 100 µM (inactive)
O=C(c1cc2c(C(F)(F)F)onc2c2ccccc12)C(F)(F)F	1.24 µM (inactive)	0.741 µM	2.98 µM (inactive)		3.08 µM (inactive)	2.58 µM (inactive)	5.61 µM (inactive)	0.614 µM (active)	3.75 µM (inactive)	3.65 µM (inactive)	2.75 µM (inactive)	2.78 µM (inactive)	2.89 µM (inactive)	3.8 µM (inactive)	0.855 µM (active)	4.51 µM (inactive)	1.63 µM (inactive)
